The text below walks through data of publication PMC6688628, “N-Substituted Pyrrole Derivative 12m Inhibits HIV-1 Entry by Targeting Gp41 of HIV-1 Envelope Glycoprotein” (Frontiers in Pharmacology, 2019).

For orientation: EC50 means the concentration giving half of the maximal effect. The term IC50 denotes the point on the concentration scale where inhibition reaches its midpoint. In general, IC90 refers to the concentration needed for an effect of 90%. The low end stands for greater potency, the high end for weaker potency. Broadly, the Kd is the free concentration of one partner at which half of the binding sites on the other are occupied at equilibrium, for simple one-to-one binding.

One assay has as its system HIV-1 IIIB. Nature of the assay: Cell-cell HIV-1 IIIB transmission, MT-2 to CEMx174 5.25 M7 cells. It counts as cell-based. The conditions noted are these: Human immunodeficiency virus 1, IIIB; infected MT-2 to CEMx174 5.25 M7 cells; luciferase. The protocol:
(§1) Inhibition of fusion between MT-2 cells infected by HIV-1 strains (X4 and R5 viruses) with CEMx174 5.25 M7 cells, which express CD4 and both coreceptors, CXCR4 and CCR5, was determined by a luciferase assay. Briefly, MT-2 cells were infected with the corresponding HIV-1 strains for 7 days. The infected MT-2 cells were washed three times and resuspended in culture medium to 2 × 10^5/ml. Then, 50 μl of a compound at graded concentrations in triplicate was incubated with equal volumes of HIV-1-infected MT-2 cells at 37°C for 30 min. Next, 100 μl of CEMx174 5.25 M7 cells (4 × 10^5/ml) was added, and the cells were incubated at 37°C for 3 days. The cells were collected, washed, and lysed with the lysing reagent included in the luciferase kit (Promega, Corp., Madison, Wis). Aliquots of cell lysates were transferred to 96-well flat-bottom luminometer plates (Costar), followed by the addition of luciferase substrate (Promega). Luciferase activity was measured using an Ultra 384 luminometer. ADS-J1 was used as a positive control for all cell–cell fusion assays.

Assay [1] deals with HIV-1 NL4-3(36G)V38A,N42T. To be noted: T20-resistant NL4-3(36G)V38A,N42T; p24 ELISA; mean ± SD.
Assay [2] concerns primary HIV-1 strains, including the X4, R5, and X4R5 strains. Kind of assay: Anti-HIV-1 activity, panel of primary HIV-1 strains. It counts as cell-based. The conditions noted are these: Human immunodeficiency virus 1; range over X4, R5 and X4R5 primary strains; read-out: EC50 values against all tested representative primary HIV-1 strains. The protocol:
The HIV-1 replication-inhibiting activity of compounds was determined as previously described ([Li et al., 2013]). Briefly, 1 × 10^4 TZM-bl or MT-2 cells were infected with primary HIV-1 strains or T20-resistant HIV-1 strains (100 TCID50) in 200 µl of RPMI-1640 medium containing 10% FBS in the presence or absence of compounds at graded concentrations for 12 h. The culture medium was replaced with fresh medium without the compounds. After culture for an additional 48 h, supernatants or cells were collected from each well. For the primary HIV-1 strains, the cells were treated using a luciferase kit. Briefly, the cells were lysed with the lysis reagent and were transferred into a 96-well flat-bottom luminometer plate after three washes with phosphate-buffered saline (PBS) (Costar Corning Inc., Corning, NY), followed by addition of the luciferase substrate included in the luciferase kit (Promega Corp., Madison, WI). The luciferase activity was measured immediately by an Ultra 384 microplate reader (Tecan, Research Triangle Park, NC). T20 was used as a positive control. For the T20-resistant HIV-1 strains, 100 µl of culture supernatant was mixed with 100 µl of 5% Triton X-100. […] Absorbance at 450 nm was recorded in an ELISA reader (Ultra 384, Tecan). EC50 values were calculated using the computer program CalcuSyn ([Chou and Talalay, 1984]).

The test system of assay [3] is HIV-1JR-FL Env mutant W571A pseudovirus. The class given is cell-based. The conditions noted are these: compared with wild-type HIV-1JR-FL pseudovirus.
The target in a further assay is T1, gp41 6-HB (N36/C34) (Human immunodeficiency virus type 1 group M subtype B, UniProt P04578).
T1 construct: purchased GL Biochem of China; host or cells: chemical solid-phase Fmoc synthesis
Kind of assay: Sandwich ELISA for gp41 6-HB formation. It counts as biochemical, HIV-1. To be noted: sandwich ELISA with mAb NC-1; 0.5-µM N36 and C34. The protocol: The inhibition of gp41 6-HB formation by NSPD-12m was determined by a sandwich ELISA as previously described ([Liu et al., 2007]). In brief, the wells of a 96-well polystyrene plate (Corning) were first precoated with 2 µg/ml IgG purified from rabbit antisera against the N36/C34 complex at 4°C overnight. In addition, the wells were blocked by 2% dry nonfat milk at 37°C for 1 h. NSPD-12m at graded concentrations was incubated with 0.5-µM N36 at 37°C for 30 min, followed by the addition of 0.5-µM C34 at 37°C for another 30-min incubation. Afterward, the previously mentioned mixtures were added to the prepared wells and incubated at 37°C for another 1 h. Then, 1 µg/ml mAb NC-1, biotin-labeled goat anti-mouse IgG (1:10,000 diluted in PBS buffer with 2% dry nonfat milk), SA-HRP (1:20,000 diluted in PBS buffer with 10% goat serum), TMB, and 1-M H2SO4 were added sequentially. A450 was measured by an ELISA reader, and EC50 was calculated using CalcuSyn software ([Chou and Talalay, 1984]). NB-64, a small-molecule HIV entry inhibitor targeting gp41, and ADS-J1 were used as positive controls.

Assay [4] addresses T2, synthetic peptide N36 (gp41 NHR) (Human immunodeficiency virus type 1 group M subtype B, UniProt P04578).
T2 construct: purchased GL Biochem of China; host or cells: chemical solid-phase Fmoc synthesis
Kind of assay: Surface plasmon resonance binding to N36. More on the design: species or system HIV-1. To be noted: SPR, compound immobilized on chip, N36 injected, 25°C; read-out: binding affinity (KD) to N36. Background: In SPR one partner is held on a chip, and binding of the other changes the refractive index at the surface.
Experimental: N36 at different concentrations (125, 250, and 500 µM in PBS) was injected at a flow rate of 2 µl/s with an association and dissociation time of 300 s at 25°C. At the end of each cycle, glycine–HCl buffer (pH 2.0) at a flow rate of 3 µl/s was used to regenerate the surface of the sensor chip platform with a regeneration time of 300 s. The binding affinity (KD) was calculated using the PlexeraDE data analysis module and GraphPad Prism 5.0 software.

In assay [5] the test system is HIV-1SF162 (R5 strain) Env pseudotyped virus. Nature of the assay: microbe, parasite or virus in culture. It counts as cell-based. To be noted: Human immunodeficiency virus 1, single-cycle infection, luciferase.
A further assay has as its system HIV-1 R5 virus. Kind of assay: Cell-cell HIV-1 R5 transmission, MT-2 to CEMx174 5.25 M7 cells. The class given is cell-based. To be noted: Human immunodeficiency virus 1; infected MT-2 to CEMx174 5.25 M7 cells; luciferase. As for the experimental part: as §1
The subject of assay [6] is HIV-1JR-FL Env mutant R579A pseudovirus. It counts as cell-based. The conditions noted are these: compared with wild-type HIV-1JR-FL pseudovirus.

T1 sequence (P04578 546-581): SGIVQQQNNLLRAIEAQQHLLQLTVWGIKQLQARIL
T2 sequence (P04578 546-581): as above

On to `Cc1cc(/C=C2\SC(=S)N(Cc3ccccc3C(F)(F)F)C2=O)c(C)n1-c1ccc(O)c(C(=O)O)c1` [NSPD-12m], for which the half-maximal effective concentration (EC50) is 1.99 ± 0.08 µM in the assay on HIV-1 IIIB; 2.03 to 6.85 µM in [2]; 23 ± 1.44 µM on gp41 6-HB (N36/C34); approximately 19.7 µM in [5]; 1.42 ± 0.3 µM with HIV-1 R5 virus. Further, the IC50 in [1] stood at 16.3 ± 3.03 µM. In assay [1], this compound gave an IC90 of 33.9 ± 6.14 µM. The “inhibitory activity against W571A mutant pseudovirus” value in [3] is reported as “retained the inhibitory activity”. In addition, the Kd in assay [4] worked out at 0.411 µM. Besides, the “inhibitory activity against R579A mutant pseudovirus” value in assay [6] is on record as “retained the inhibitory activity”.
